From ChEMBL document CHEMBL4396877, “Design and Synthesis of TASIN Analogues Specifically Targeting Colorectal Cancer Cell Lines with Mutant Adenomatous Polyposis Coli (APC)” (J Med Chem, 2019) come the findings set out here.

What is called Vd is a proportionality between amount in the body and measured concentration, not a real space. Lower therefore signals confinement near the circulation. Usually Tmax stands for the time from dosing to the highest level. In general, Cmax refers to the maximum level reached in the sampled fluid or tissue. The term Kp denotes tissue or fluid exposure divided by exposure in the circulation.

The nature of data set [1]: AUClast in CD-1 mouse Large intestine at 10 mg/kg, iv after 10 to 1440 mins by LC/MS analysis. The class given is ADME, organism-based. As to conditions: in vivo.
The nature of data set [2]: Volume of distribution in CD-1 mouse by LC-MS/MS analysis. The format is ADME. As to conditions: in vivo.
Data set [3] can be described thus: AUClast in CD-1 mouse Large intestine at 10 mg/kg, ip after 10 to 1440 mins by LC/MS analysis. The class given is ADME, organism-based. The conditions noted are these: in vivo.
Data set [4] can be described thus: Tmax in CD-1 mouse large intestine at 10 mg/kg, iv after 10 to 1440 mins by LC/MS analysis. The class given is ADME, organism-based.
Data set [5] is described as follows: Cmax in CD-1 mouse large intestine at 10 mg/kg, ip after 10 to 1440 mins by LC/MS analysis. The format is ADME, organism-based. Further details: dose 10 mg/kg, route intraperitoneal.
Data set [6] is described as follows: Tmax in CD-1 mouse large intestine at 10 mg/kg, ip after 10 to 1440 mins by LC/MS analysis. The format is ADME, organism-based.
Data set [7] is described as follows: Cmax in CD-1 mouse large intestine at 10 mg/kg, iv after 10 to 1440 mins by LC/MS analysis. The format is ADME, organism-based. More on the design: dose 10 mg/kg, route intravenous.
Data set [8] is described as follows: Tmax in CD-1 mouse large intestine at 5 mg/kg, iv after 10 to 1440 mins by LC/MS analysis. The format is ADME, organism-based.
The nature of data set [9]: Cmax in CD-1 mouse large intestine at 20 mg/kg, po after 10 to 1440 mins by LC/MS analysis. The class given is ADME, organism-based. Further details: dose 20 mg/kg, route oral.
The nature of data set [10]: AUClast in CD-1 mouse Large intestine at 20 mg/kg, po after 10 to 1440 mins by LC/MS analysis. The class given is ADME, organism-based. As to conditions: in vivo.
Data set [11] is described as follows: Ratio of drug level in lung to plasma of CD-1 mouse at 5 mg/kg, iv. The class given is ADME, organism-based.
A short description of data set [12]: Cmax in CD-1 mouse large intestine at 5 mg/kg, iv after 10 to 1440 mins by LC/MS analysis. Further details: dose 5 mg/kg, route intravenous. The format is ADME, organism-based.
Data set [13] can be described thus: AUClast in CD-1 mouse Large intestine at 5 mg/kg, iv after 10 to 1440 mins by LC/MS analysis. The class given is ADME, organism-based. As to conditions: in vivo.
Data set [14] can be described thus: Tmax in CD-1 mouse large intestine at 20 mg/kg, po after 10 to 1440 mins by LC/MS analysis. The format is ADME, organism-based.

SMILES strings stand for the structures.

Turning to `C#CCC1CCN(C2CCN(S(=O)(=O)c3ccc(Br)cc3)CC2)CC1`, the AUClast in data set [1] worked out at 559037 ng·min/g; in data set [3], 633289 ng·min/g. This compound also yielded a volume of distribution (Vd) in data set [2] of 5.87 to 63 L/kg. The Tmax in [4] and in data set [6] was 10 min each time. Moreover, the Cmax in [5] turned out to be 5750 ng/g; in data set [7], 2970 ng/g.
For `CC1CCN(C2CCN(S(=O)(=O)c3ccc(Cl)cc3)CC2)CC1`, in data set [1], the AUClast was 262874 ng·min/g. In data set [2], this compound yielded a Vd of 5.87 to 63 L/kg. Besides, the Cmax in data set [7] is 1410 ng/g.
As to `CC1CCN(C2CCN(S(=O)(=O)c3ccc(OC(F)F)cc3)CC2)CC1`, the Tmax in data set [8], in data set [6] and in [14] was 10 min each time. This compound came in with a Vd in data set [2] of 5.87 to 63 L/kg. Also, the Cmax is 3250 ng/g in data set [9], 1820 ng/g in [12] and 10100 ng/g in data set [5]. For the same compound, the AUClast in [3] worked out at 790425 ng·min/g; in data set [10], 890969 ng·min/g; in data set [13], 511878 ng·min/g. In addition, the Kp in [11] was determined as 5.7.
The compound `COc1ccc(S(=O)(=O)N2CCC(N3CCC(C)CC3)CC2)cc1` had an AUClast in data set [3] of 737709 ng·min/g. The same compound gave a Cmax in data set [5] of 10700 ng/g. For the same compound, in data set [6], the Tmax was 10 min.
